Legend:
hES cells [1] = assay: SSEA4 immunohistochemistry of treated hES cell cultures; assay type: cell-based, human; conditions: 50 μM DAPT vs DMSO treated cultures
Experimental: Cells on chamber slides were rinsed once with 1× PBS and fixed for 30 minutes in 4% PFA/4% sucrose in PBS pH7.4 at room temperature for surface staining, or in ice cold 100% methanol for 5 minutes at −20° C. followed by 4% PFA/4% sucrose in PBS for 10 minutes at room temperature for intracellular staining using the bTAN20 antibody. They were rinsed 3× in 1×PBS and blocked in 3% goat serum/1% PVP with or without 0.3% Triton-X100 in PBS for 30 minutes at 4° C. Primary antibodies were diluted in blocking solution and this solution was applied overnight at 4° C. to the cells. Cells were rinsed in 1×PBS and washed overnight with 3 changes of 1×PBS. Secondary antibodies were applied in blocking solution for 2 hours at 4° C. They were rinsed in 1×PBS then washed overnight with 3 changes of 1×PBS. Cell nuclei were stained with DAPI at 1 μg/ml in the first rinse for 10 minutes. The chambers were removed and slides were mounted in VectaShield mounting medium.
Inhibition of gamma-secretase reduces the number of spontaneously differentiated cells in the culture. […] These experiments are diagramed in FIG. 9. hES cell master cultures were maintained with the manual passaging technique. […] The treated cultures were analyzed for SSEA4 expression by flow cytometry, immunohistochemistry, and EB formation.

[2] = tested on: hES cells (BGN1 and BGN2); assay: Flow cytometry of SSEA4 and Notch1 expression in treated hES cell cultures; assay type: cell-based, human; conditions: for proportion of cells in Fr. A (SSEA4high/Notch1high, undifferentiated cells): 50 μM DAPT vs DMSO, four experiments
Experimental: Cultures were harvested by Collagenase/trypsin passaging methods described above as an essentially single cell suspension, washed in 1×PBS, and fixed in 1% paraformaldehyde for 25 minutes on ice. The cells were washed in 1×PBS, blocked in 3% goat serum, and stained with primary antibodies for 30 minutes. to overnight at 4° C. The cells were washed in 1×PBS three times and stained with Secondary FITC or PE conjugated antibodies (Jackson Immunochemicals, Inc.) for 1 hour to overnight at 4° C. The cells were washed with 1×PBS three times and analyzed on a CyAn flow cytometer (DakoCytomation, Inc.).
Inhibition of gamma-secretase reduces the number of spontaneously differentiated cells in the culture. […] These experiments are diagramed in FIG. 9. hES cell master cultures were maintained with the manual passaging technique. A combination of Collagenase type IV treatment and Trypsin/EDTA exposure was used to passage the hES cells as single cells for no more than 10-12 passages before SSEA4 selection for early trypsin cultures, or were passaged more than 40 passages for late trypsin cultures. The cultures were selected for SSEA4 epitope expression using magnetic selection of SSEA4 antibody-stained cells. The retained fraction from the sort was plated and subjected to the treatment conditions. In some instances, SSEA4 selected cells were expanded for one or two passages. Treatment conditions were 50 μM DAPT, or 0.5% DMSO as carrier control. In some cases, these conditions were compared to untreated cells. The treated cultures were analyzed for SSEA4 expression by flow cytometry, immunohistochemistry, and EB formation.

gamma-secretase complex = target: T1, gamma-secretase complex (Homo sapiens, UniProt P49768); assay: Western blot for gamma-secretase cleaved Notch1 (NICD) in hES cells harvested with Trypsin/EDTA; assay type: cell-based; conditions: BGN1 hES cells grown in 50 μM DAPT for 3 days, vs 0.5% DMSO
T1 construct: endogenous in cells; host or cells: BGN1 human embryonic stem cells, grown on mouse embryonic fibroblast feeders
T1 sequence (Q92542 34-709, other chains not shown): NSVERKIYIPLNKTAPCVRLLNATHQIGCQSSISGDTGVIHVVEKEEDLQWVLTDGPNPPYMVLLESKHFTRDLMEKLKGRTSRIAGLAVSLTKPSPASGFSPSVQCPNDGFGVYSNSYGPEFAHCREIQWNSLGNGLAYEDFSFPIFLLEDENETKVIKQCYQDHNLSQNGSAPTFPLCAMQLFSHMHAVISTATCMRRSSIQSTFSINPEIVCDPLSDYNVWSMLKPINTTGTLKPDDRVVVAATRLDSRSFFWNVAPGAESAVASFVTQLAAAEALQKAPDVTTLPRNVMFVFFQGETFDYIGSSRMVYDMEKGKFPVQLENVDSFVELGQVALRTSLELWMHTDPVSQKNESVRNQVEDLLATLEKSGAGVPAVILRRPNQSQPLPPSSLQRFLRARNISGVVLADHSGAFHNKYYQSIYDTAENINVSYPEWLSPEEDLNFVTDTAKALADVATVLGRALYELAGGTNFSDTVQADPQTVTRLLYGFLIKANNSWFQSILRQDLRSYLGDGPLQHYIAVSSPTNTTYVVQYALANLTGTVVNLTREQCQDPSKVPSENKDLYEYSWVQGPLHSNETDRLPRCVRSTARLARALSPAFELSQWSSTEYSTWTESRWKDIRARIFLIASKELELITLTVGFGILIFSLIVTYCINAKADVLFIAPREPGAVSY
T1 sequence (Q96BI3 whole entry, other chains not shown, further chain): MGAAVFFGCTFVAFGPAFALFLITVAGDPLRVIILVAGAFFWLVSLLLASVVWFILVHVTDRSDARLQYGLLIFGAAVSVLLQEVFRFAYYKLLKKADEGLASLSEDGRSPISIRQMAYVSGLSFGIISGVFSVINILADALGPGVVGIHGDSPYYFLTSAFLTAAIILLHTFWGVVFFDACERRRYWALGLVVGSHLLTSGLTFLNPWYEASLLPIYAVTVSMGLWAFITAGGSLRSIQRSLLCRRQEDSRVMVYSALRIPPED
T1 sequence (Q9NZ42 whole entry, other chains not shown, further chain): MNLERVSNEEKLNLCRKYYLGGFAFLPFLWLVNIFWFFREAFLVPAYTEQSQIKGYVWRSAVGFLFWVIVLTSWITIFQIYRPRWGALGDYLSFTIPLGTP
Experimental: Western blots were done using standard procedures. In brief, protein content of samples was determined with a BCA micro protein assay (Pierce, Rockford, Ill.) and equal amounts of protein were loaded onto precast polyacrylamide mini-gels (Gradipore, Australia). Proteins were transferred to nylon membranes which were then incubated for 30 minutes in blocking buffer (tris buffered saline/0.1% tween 20/5% powdered milk). Primary antibodies were diluted in blocking buffer at the following ratios: bTAN20 and C651.6bHN were diluted 1:10; anti-Oct4 was diluted 1:100; anti-presenilin, nicastrin, cleaved NOTCH1 were diluted 1:1000 and anti-HDAC was used at a concentration of 0.5 μg/ml. Primary antibodies were incubated overnight at 4° C., followed by two five-minute washes and one 15-minute wash in tris-buffered saline/0.1% tween 20. Secondary antibodies were diluted in blocking buffer and incubated with the membranes for 45 minutes at room temperature. Washes were repeated as above and a final 15-minute wash was done with tris-buffered saline. ECL (Amersham, Buckinghamshire, England) was performed according to the manufacturer's instructions and autoradiographs were made.
To address the possibility that trypsin non-specifically generated the 110 kD Notch1 band, DAPT, a potent and specific gamma-secretase inhibitor, was used to treat the hES cells before harvesting. […]

Hes1 = assay: Real-time RT-PCR of Hes1 induction by EDTA in hES cells; assay type: cell-based, human
Experimental: Hes1 induction by EDTA treatment was monitored by real-time RT-PCR. Cultures of […] on Matrigel-coated 24-well plates were treated with either 0.5% DMSO or 50 μM DAPT in CM for 4 hours to overnight before induction by EDTA exposure. The wells were exposed to 2 mM EDTA in CM (with DMSO or DAPT) for 15 minutes at 37° C. EDTA was neutralized by addition of 4.9 mM CaCl2 and incubated for a further 1.5 hours. The cells were harvested with Trizol and RNA was extracted as described above. Real-time PCR was performed using TaqMan primers and probes (Applied Biosystems, Inc.) for Hes1 (primer sequences: […] ID NO: 17); […] ID NO:18); probe […] NO:19)) and normalized to GAPDH (kit from Applied Biosystems, Inc; cat. no. 402869). Reactions were run and monitored on an ABI7700 Sequence Detection System (Applied Bioysytems, Inc). Data was analyzed as described in Pfaffl et al., 2002 Nucleic Acids Research 30(9): […]. REST-XL (version 2) software was used to determine relative quantification of Hes1 gene expression. The data were expressed as the ratio of GAPDH normalized Hes1 expression of EDTA-treated to EDTA-untreated samples. DAPT treated cultures were compared to DMSO treated cultures. These values were log transformed for statistical analysis by t-test and graphed in Excel.

hES cells [3] = assay: Embryoid body formation from late trypsin passaged hES cultures; assay type: cell-based, human; conditions: late trypsin passaged cultures maintained in DAPT vs DMSO vs untreated
Experimental: Embryoid bodies were formed from cultures that had been growing on Matrigel and exposed to the different treatments. These cultures were exposed to Collagenase type IV or Dispase (Gibco) for 10 minutes at 37° C. until a monolayer of cells lifted off of the dish. The monolayer was passed through a pipette tip until it was broken down to small clumps of approximately 500-1000 cells. These clumps were washed in 15% FBS/1% MEM nonessential amino acids/1 mM L-glutamine/penicillin (0.5 U/ml) and streptomycin (0.5 U/ml) twice by allowing them to settle by gravity, removing the supernatant, and resuspending the loose pellet. The cells were plated onto agarose coated Petri dishes in the same medium used for washing and allowed to grow for up to 10 days.
Inhibition of gamma-secretase reduces the number of spontaneously differentiated cells in the culture. […] These experiments are diagramed in FIG. 9. hES cell master cultures were maintained with the manual passaging technique. A combination of Collagenase type IV treatment and Trypsin/EDTA exposure was used to passage the hES cells as single cells for no more than 10-12 passages before SSEA4 selection for early trypsin cultures, or were passaged more than 40 passages for late trypsin cultures. […] The treated cultures were analyzed for SSEA4 expression by flow cytometry, immunohistochemistry, and EB formation.

[4] = inhibitor treatment vs DMSO, 4 experiments, BGN1 and BGN2

SMILES | homogeneity of SSEA4 expression (immunohistochemical stain) (hES cells [1]) | proportion of cells in Fr. A (SSEA4high/Notch1high, undifferentiated cells) ([2]; BGN1 and BGN2) | proportion of cells in Fr. A (SSEA4high/Notch1high, undifferentiated cells) ([2]; BGN1 and BGN2, listed as inhibitor) | cells in Fr. B (SSEA4low-neg/Notch1pos, differentiating cells) ([2]; 50 μM DAPT, average of four experiments, BGN1 and BGN2, DMSO control 30%, p=0.0243) [%] | proportion of Fr. B (SSEA4low-neg/Notch1pos) cells in culture, in words ([2]; DAPT vs DMSO and untreated, triplicate cultures) | number of cells in Fr. A [2, 4] | number of cells in Fr. B [2, 4] | generation of the NICD fragment (cleaved form of Notch1) upon Trypsin/EDTA exposure (gamma-secretase complex) | Hes1 induction by EDTA in the presence of the inhibitor (GAPDH normalized expression ratio) (Hes1; 50 μM DAPT 4 hours to overnight, 2 mM EDTA 15 minutes, three independent experiments) | reduction in Hes1 expression with inhibitor treatment, significance (Hes1; EDTA induction, DAPT vs DMSO, p=0.032, t-test) | morphology of embryoid bodies (hES cells [3]) | Hes1 induction by EDTA exposure (Hes1; 2 mM EDTA 15 minutes, three independent experiments)
C[C@H](NC(=O)Cc1cc(F)cc(F)c1)C(=O)N[C@H](C(=O)OC(C)(C)C)c1ccccc1 [DAPT, N-[N-(3,5-Difluorophenacetyl-L-alanyl)]-S-phenylglycine t-Butyl Ester] | more homogenous | small but significant increase | significantly increased | 15 | reduced | remained unchanged | significantly reduced | not generated | less than two-fold | significant | returned the EBs to a cystic morphology | –
O=C(O)CN(CCN(CC(=O)O)CC(=O)O)CC(=O)O [EDTA] | – | – | – | – | – | – | – | – | – | – | – | up to 10 fold

Reference: patent publication US20060194315A1, “Compositions and methods for the control, differentiaton and/or manipulation of pluripotent cells through a gamma-secretase signaling pathway” (priority 2003, published 2006)
